Format in all cases: in vivo
In test [1] the test system is barnyardgrass (Echinochloa crus-galli L.). Description: Test Example 1, foliar treatment in upland pots. To be noted: 20th to 22nd day after application, visual, read-out: Growth inhibition rate (%) Barnyardgrass. The source says: (§1) Upland field soil was put into a 1/170,000 hectare pot, and seeds of various plants were sown. When the respective plants reached predetermined leaf stage ((1) barnyardgrass (Echinochloa crus-galli L.): 1.2 to 3.0 leaf stage, (2) crabgrass (Digitaria sanguinalis L.): 1.0 to 3.0 leaf stage, (3) green foxtail (Setaria viridis L.): 1.5 to 3.0 leaf stage, (4) redroot pigweed (Amaranthus retroflexus L.): cotyledon stage to 1.5 leaf stage, (5) prickly sida (Sida spinosa L.): cotyledon stage to 2.0 leaf stage, (6) velvetleaf (Abutilon theophrasti MEDIC.): cotyledon stage to 1.3 leaf stage, (7) rice (Oryza sativa L.): 1.2 to 2.5 leaf stage, (8) corn (Zea mays L.): 2.0 to 3.3 leaf stage, (9) soybean (Glycine max Merr.): primary leaf stage to 0.3 leaf stage) and wheat (Triticum spp.): 2.0 to 3.0 leaf stage, wettable powders or emulsifiable concentrates of the compounds of the present invention prepared in accordance with a conventional preparation method, were weighed so that the active ingredients became the prescribed amounts, and diluted with water in an amount corresponding to 500 liter per 1 hectare (containing 0.1 vol % of an agricultural spreader (“KUSARINOH”, manufactured by NIHON NOHYAKU CO., LTD.)). The spray solutions thus prepared were applied for foliar treatment by a small sprayer.
(§2) On the 20th to 22nd day after application, the state of growth of the respective plants was visually observed, and the herbicidal effect was evaluated by a growth inhibition rate (%) of 0 (equivalent to the non-treated area) to 100% (complete kill).

In test [2] the test system is corn (Zea mays L.). As to the kind of experiment: Test Example 1, foliar treatment in upland pots. Particulars: 20th to 22nd day after application, visual, read-out: Growth inhibition rate (%) Corn.
Description: as §1, §2

For test [3], the system named is crabgrass (Digitaria sanguinalis L.). Description: Test Example 1, foliar treatment in upland pots. To be noted: 20th to 22nd day after application, visual, read-out: Growth inhibition rate (%) Crabgrass.
Description: as §1, §2

For test [4], the system named is green foxtail (Setaria viridis L.). As to the kind of experiment: Test Example 1, foliar treatment in upland pots. To be noted: 20th to 22nd day after application, visual, read-out: Growth inhibition rate (%) Green foxtail.
Description: as §1, §2

Test [5] has as its system redroot pigweed (Amaranthus retroflexus L.). As to the kind of experiment: Test Example 1, foliar treatment in upland pots. To be noted: 20th to 22nd day after application, visual, read-out: Growth inhibition rate (%) Redroot pigweed.
Description: as §1, §2

For test [6], the system named is soybean (Glycine max Merr.). As to the kind of experiment: Test Example 1, foliar treatment in upland pots. To be noted: 20th to 22nd day after application, visual, read-out: Growth inhibition rate (%) Soybean.
Description: as §1, §2

The subject of test [7] is velvetleaf (Abutilon theophrasti MEDIC.). As to the kind of experiment: Test Example 1, foliar treatment in upland pots. Particulars: 20th to 22nd day after application, visual, read-out: Growth inhibition rate (%) Velvetleaf.
Description: as §1, §2

The subject of test [8] is wheat (Triticum spp.). As to the kind of experiment: Test Example 1, foliar treatment in upland pots. To be noted: 20th to 22nd day after application, visual, read-out: Growth inhibition rate (%) Wheat.
Description: as §1, §2

Test [9] deals with barnyardgrass (Echinochloa crus-galli L.). As to the kind of experiment: Test Example 2, soil application on the day after sowing. Particulars: 21st to 22nd day after application, visual, read-out: Growth inhibition rate (%) Barnyardgrass. The source says: (§3) Upland field soil was put into a 1/170,000 hectare pot, and seeds of various plants (barnyardgrass (Echinochloa crus-galli L.), crabgrass (Digitaria sanquinalis L.), green foxtail (Setaria viridis L.), redroot pigweed (Amaranthus retroflexus L.), prickly sida (Sida spinosa L.), velvetleaf (Abutilon theophrasti MEDIC.), rice (Oryza sativa L.), corn (Zea mays L.), soybean (Glycine max Merr.)) and wheat (Triticum spp.) were sown. On the day after sowing, wettable powders or emulsifiable concentrates of the compounds of the present invention prepared in accordance with a conventional preparation method, were weighed so that the active ingredients became the prescribed amounts, and diluted with water in an amount corresponding to 500 liter per 1 hectare, followed by soil application with a small sprayer.
(§4) On the 21st to 22nd day after the application, the state of growth of the respective plants was visually observed, and the herbicidal effect was evaluated by a growth inhibition rate (%) of from 0 (equivalent to the non-treated area) to 100% (complete kill).

Test [10] has as its system corn (Zea mays L.). The test is described as above. Particulars: 21st to 22nd day after application, visual, read-out: Growth inhibition rate (%) Corn.
Description: as §3, §4

Test [11] concerns crabgrass (Digitaria sanquinalis L.). The test is described as above. To be noted: 21st to 22nd day after application, visual, read-out: Growth inhibition rate (%) Crabgrass.
Description: as §3, §4

The test system of test [12] is green foxtail (Setaria viridis L.). The description is as above. Particulars: 21st to 22nd day after application, visual, read-out: Growth inhibition rate (%) Green foxtail.
Description: as §3, §4

In test [13] the test system is prickly sida (Sida spinosa L.). Described as above. To be noted: 21st to 22nd day after application, visual, read-out: Growth inhibition rate (%) Prickly sida.
Description: as §3, §4

The test system of test [14] is redroot pigweed (Amaranthus retroflexus L.). The test is described as above. Particulars: 21st to 22nd day after application, visual, read-out: Growth inhibition rate (%) Redroot pigweed.
Description: as §3, §4

Test [15] concerns rice (Oryza sativa L.). Described as above. Particulars: 21st to 22nd day after application, visual, read-out: Growth inhibition rate (%) Rice.
Description: as §3, §4

Test [16] has as its system soybean (Glycine max Merr.). The test is described as above. To be noted: 21st to 22nd day after application, visual, read-out: Growth inhibition rate (%) Soybean.
Description: as §3, §4

Test [17] deals with velvetleaf (Abutilon theophrasti MEDIC.). The description is as above. Particulars: 21st to 22nd day after application, visual, read-out: Growth inhibition rate (%) Velvetleaf.
Description: as §3, §4

For test [18], the system named is wheat (Triticum spp.). Described as above. Particulars: 21st to 22nd day after application, visual, read-out: Growth inhibition rate (%) Wheat.
Description: as §3, §4

Test [19] concerns Japanese bulrush (Scirpus juncoides). As to the kind of experiment: Test Example 3, paddy field pot, application to irrigated water. Particulars: Schoenoplectiella juncoides, applied at 0.5 leaf stage, 13th to 17th day after application, read-out: Growth inhibition rate (%) Japanese bulrush. The text has this:
(§5) Paddy field soil was put into a 1/1,000,000 hectare pot, and seeds of barnyardgrass (Echinochloa oryzicola vasing.) and Japanese bulrush (Scirpus juncoides) were sown and lightly covered with soil. Then, pot was left to stand in a greenhouse in a state irrigated to a water depth of from 0.5 to 1 cm, and next day or two days later, tubers of Japanese ribbon waparo (Sagittaria pygmaea) were planted. Then, the irrigated water depth was maintained to be from 3 to 4 cm, and when barnyardgrass and Japanese bulrush reached 0.5 leaf stage, and Japanese ribbon waparo reached primary leaf stage, a water diluted solution of a wettable powder or an emulsifiable concentrate of the compound of the present invention prepared in accordance with a conventional preparation method, was uniformly dropwise applied by a pipette so that the amount of active ingredients would be a prescribed amount. Further, paddy field soil was put into a 1/1,000,000 pot, followed by soil puddling to an irrigated water depth of from 3 to 4 cm. Next day, rice (Oryza sativa L.) (var.: Nihonbare) of two leaf stage was transplanted in a transplantation depth of 3 cm. On the 4th day after transplantation, the compound of the present invention was applied in the same manner as described above.
(§6) On the 13th to 17th day after application, the state of growth of barnyardgrass, Japanese bulrush and Japanese ribbon waparo was visually observed, and on the 20th to 23rd day after application, the state of growth of rice was visually observed, and the herbicidal effect was evaluated by a growth inhibition rate (%) of 0 (equivalent to the non-treated area) to 100% (complete kill).

Test [20] concerns Japanese ribbon waparo (Sagittaria pygmaea). Described as above. To be noted: applied at primary leaf stage, 13th to 17th day after application, read-out: Growth inhibition rate (%) Japanese ribbon waparo.
Description: as §5, §6

The subject of test [21] is barnyardgrass (Echinochloa oryzicola vasing.). The test is described as above. Particulars: applied at 0.5 leaf stage, 13th to 17th day after application, read-out: Growth inhibition rate (%) barnyard grass.
Description: as §5, §6

Test [22] deals with rice (Oryza sativa L.) (var.: Nihonbare). As to the kind of experiment: Test Example 3, paddy field pot, transplanted rice. To be noted: applied 4th day after transplantation, 20th to 23rd day after application, read-out: Growth inhibition rate (%) Rice.
Description: as §5, §6

Test [23] deals with prickly sida (Sida spinosa L.). As to the kind of experiment: Test Example 1, foliar treatment in upland pots. Particulars: 20th to 22nd day after application, visual, read-out: Growth inhibition rate (%) Prickly sida.
Description: as §1, §2

Test [24] deals with rice (Oryza sativa L.). Description: Test Example 1, foliar treatment in upland pots. Particulars: 20th to 22nd day after application, visual, read-out: Growth inhibition rate (%) Rice.
Description: as §1, §2

In general, inhibition refers to the relative decrease from the control value, in per cent. `CCOCc1c(S(C)(=O)=O)ccc(C(=O)c2cnn(C)c2OC(C)OC(=O)OCC)c1C` (centres unmarked) [Compound No. 1-4, 1-(4-(3-(Ethoxymethyl)-2-methyl-4-(methylsulfonyl)benzoyl)-1-methyl-1H-pyrazol-5-yloxy)ethyl ethyl carbonate]: the inhibition at 7 g/ha amounted to 95% in test [1]; 0% with corn (Zea mays L.) [2]; 95% in [3]; 75% in test [4]; 80% in [5]; 80% in test [6]. In addition, the inhibition at 7 g/ha came out at 80% in test [7] and 0% in the test on wheat (Triticum spp.) [8]. The inhibition at 250 g/ha in [9] amounted to 98%; with corn (Zea mays L.) [10], 0%; in [11], 80%; in [12], 80%; in test [13] it was 90%; in test [14] it was 98%. The inhibition at 250 g/ha is 60% in the test with rice (Oryza sativa L.) [15], 40% in test [16], 100% in test [17] and 0% in the test on wheat (Triticum spp.) [18]. For the same compound, the inhibition at 63 g/ha in test [19] stood at 60%; in [20], 70%; in test [21], 100%; in [22] it was 20%.

On to `COCCOc1c(S(C)(=O)=O)ccc(C(=O)c2c(C)nn(C(C)C)c2O)c1C` [Compound No. 8-2, (5-Hydroxy-1-isopropyl-3-methyl-1H-pyrazol-4-yl)(3-(2-methoxyethoxy)-2-methyl-4-(methylsulfonyl)phenyl)ketone], for which the inhibition at 7 g/ha worked out at 20% in test [1]; 0% in the test with corn (Zea mays L.) [2]; 40% in test [3]; 50% in test [4]; 20% in [23]; 60% in test [5]. Moreover, the inhibition at 7 g/ha with rice (Oryza sativa L.) [24] was 0%; in [6] it was 10%; in test [7] it was 60%; in the test with wheat (Triticum spp.) [8], 0%. The inhibition at 250 g/ha came to 100% in test [9]; 60% in the test on corn (Zea mays L.) [10]; 100% in [11]; 100% in [12]; 60% in test [13]; 100% in [14]. Also, the inhibition at 250 g/ha with rice (Oryza sativa L.) [15] turned out to be 100%; in test [17] it was 70%; with wheat (Triticum spp.) [18] it was 20%. In addition, the inhibition at 63 g/ha amounted to 70% in test [19], 40% in test [21] and 10% in test [22].

For the origin of these results see patent publication US8466089B2, “Pyrazole compounds, process for their production and herbicides containing them” (Ishihara Sangyo Kaisha, Ltd., priority 2008, dated 2013).
